From patent US20250302862A1, “SMALL RNA DRUG FOR INHIBITING ACTIVITY OF CANCER CELLS” (Institute of Basic Medical Sciences Chinese Academy of …, priority 2022, published 2025) come the findings set out here.

The subject of the data set is cyclooxygenase-2 (COX2). Nature of the data set: Dual luciferase reporter assay in 293T cells. The data set is classed as cell-based. How it is done:
The targeting effect of HQi-sRNA-2 obtained from medicinal plants by the inventors on cyclooxygenase-2 (COX2) was studied by a dual luciferase reporter detection system, so as to study its potential to exert lipid-lowering effects.
293T cells were cultured and transfected with the HQi-sRNA-2 to be screened and NC-sRNA, respectively, and then with the dual luciferase reporter plasmid of COX2. The dual luciferase activity was detected after 48 h.

As to “HQi-sRNA-2: small RNA derived from Scutellaria baicalensis, sequence AUGGUUCGAUUCCGGAGAGGG (listed as RNA, chemistry not given here)”, the luciferase activity entry (COX2 dual luciferase reporter plasmid, 48 h, compared with NC-sRNA) is “significantly reduce” and the luciferase activity result (base sequence of the binding site mutated) is “restored”.
